Results reported in paper PMC9736374, “Design, Synthesis and Antimicrobial Properties of New Tetracyclic Quinobenzothiazine Derivatives” (International Journal of Molecular Sciences, 2022).
Converted amounts (≈) assume the structure as drawn.

Key:
[1] = tested on: Staphylococcus aureus ATCC 29213; assay: MIC, microtitration broth method; format: cell-based; settings: ATCC29213; SA = Staphylococcus aureus ATCC 29213; 24 h, 37 °C
[2] = tested on: Enterococcus faecalis ATCC 29212; assay: MIC, microtitration broth method; format: cell-based; settings: ATCC29212; EF = Enterococcus faecalis; 24 h, 37 °C
[3] = tested on: Staphylococcus aureus ATCC 29213; assay: MBC, agar aliquot subculture method; format: cell-based; settings: ATCC29213; SA = Staphylococcus aureus ATCC 29213
[4] = tested on: Enterococcus faecalis ATCC 29212; assay: MBC, agar aliquot subculture method; format: cell-based; settings: ATCC29212; EF = Enterococcus faecalis
[5] = tested on: S. aureus ATCC 29213 respiratory activity; assay: MTT assay of bacterial respiration; format: cell-based, Staphylococcus aureus; settings: for Conc.: corresponding multiple of MBC with at least 70% inhibition of respiratory activity / Conc.: lowest multiple of MIC with at least 70% inhibition of respiratory activity: S. aureus ATCC 29213, MTT, 24 h
[6] = tested on: methicillin-resistant S. aureus SA 3202 (MRSA1); assay: MIC, microtitration broth method; format: cell-based; settings: Staphylococcus aureus; MRSA1 = SA 3202; 24 h, 37 °C
[7] = tested on: methicillin-resistant S. aureus SA 630 (MRSA2); assay: MIC, microtitration broth method; format: cell-based; settings: Staphylococcus aureus; MRSA2 = SA 630; 24 h, 37 °C
[8] = tested on: methicillin-resistant S. aureus 63718 (MRSA3); assay: MIC, microtitration broth method; format: cell-based; settings: Staphylococcus aureus; MRSA3 = 63718; 24 h, 37 °C
[9] = tested on: vancomycin-resistant E. faecalis VRE 342B (VRE1); assay: MIC, microtitration broth method; format: cell-based, Enterococcus faecalis; settings: VRE1 = VRE 342B; 24 h, 37 °C
[10] = tested on: vancomycin-resistant E. faecalis VRE 368 (VRE2); assay: MIC, microtitration broth method; format: cell-based, Enterococcus faecalis; settings: VRE2 = VRE 368; 24 h, 37 °C
[11] = tested on: vancomycin-resistant E. faecalis VRE 725B (VRE3); assay: MIC, microtitration broth method; format: cell-based, Enterococcus faecalis; settings: VRE3 = VRE 725B; 24 h, 37 °C
M. smegmatis ATCC 700084 = assay: In vitro antimycobacterial MIC, broth dilution micro-method; format: cell-based, Mycobacterium smegmatis; settings: Mycolicibacterium smegmatis, ATCC700084, 72 h; MS = M. smegmatis ATCC 700084; 3 days, 37 °C
[12] = tested on: Mycobacterium marinum CAMP 5644; assay: as above; format: cell-based; settings: CAMP5644, 504 h; MM = Mycobacterium marinum CAMP 5644; 21 days, 28 °C
[13] = tested on: methicillin-resistant S. aureus SA 3202 (MRSA1); assay: MBC, agar aliquot subculture method; format: cell-based; settings: Staphylococcus aureus; MRSA1 = SA 3202
[14] = tested on: methicillin-resistant S. aureus SA 630 (MRSA2); assay: MBC, agar aliquot subculture method; format: cell-based; settings: Staphylococcus aureus; MRSA2 = SA 630
[15] = tested on: methicillin-resistant S. aureus 63718 (MRSA3); assay: MBC, agar aliquot subculture method; format: cell-based; settings: Staphylococcus aureus; MRSA3 = 63718
[16] = tested on: vancomycin-resistant E. faecalis VRE 342B (VRE1); assay: MBC, agar aliquot subculture method; format: cell-based, Enterococcus faecalis; settings: VRE1 = VRE 342B
[17] = tested on: vancomycin-resistant E. faecalis VRE 368 (VRE2); assay: MBC, agar aliquot subculture method; format: cell-based, Enterococcus faecalis; settings: VRE2 = VRE 368
[18] = tested on: vancomycin-resistant E. faecalis VRE 725B (VRE3); assay: MBC, agar aliquot subculture method; format: cell-based, Enterococcus faecalis; settings: VRE3 = VRE 725B
[19] = tested on: normal human dermal fibroblasts (NHDF); assay: In vitro cell viability, WST-1 assay; format: cell-based; settings: 72 h
Method: Compounds were evaluated for their antiproliferative activity using NHDF (normal human dermal fibroblasts, ATCC, Manassas, VA, USA). The cultured cells were kept at 37 °C and 5% CO2. The cells were seeded (1 × 10^4 cells/well/100 μL DMEM supplemented with 10% FCS and streptomycin/penicillin) into 96-well plates (Corning Inc., Corning, NY, USA). Cells were counted using a hemocytometer (Burker chamber) and phase contrast Olympus IX50 microscope equipped with Sony SSC-DC58 AP camera and Olympus DP10 digital camera. The cell viability of the compounds was determined using the Cell Proliferation Reagent WST-1 assay (Roche Molecular Biochemicals, Mannheim, Germany). The examined cells were exposed to the tested compounds (1 mg/mL DMSO stock) for 72 h at various concentrations (0.1–100 μg/mL). The control was included in order to eliminate the DMSO effect at the concentration used. Cell cultures were incubated with WST-1 (10 μL) for 1 h. The absorbance of the samples was measured against a background control at 450 nm using a microplate reader with a reference wavelength at 600 nm. The obtained results are expressed as means of at least two independent experiments performed in triplicate.

Lipophilicity by RP-TLC = format: physicochemical; settings: Tris buffer pH 7.4/acetone, read-out: logPTLC
Method: The lipophilicity parameters were determined experimentally using reverse phase thin-layer chromatography (RP-TLC). Chromatograms were prepared on RP-18F254s plates (1.05559.0001, Merck, Germany) precoated with nonpolar silicone oil. Plates were developed in glass chromatography chambers previously saturated with vapor of mobile phase. The mobile phase was composed of 0.2M Tris buffer (pH = 7.4) and acetone in different concentrations, i.e., 50%, 60%, 70%, 80 and 90%. The chromatograms were visualised in UV light (λ = 254 nm). Determination of the RF coefficient was carried out twice for all compounds; in all cases, acetone concentrations used. The final value of RF is the mean of the two measurements. The obtained RF coefficient was used to calculate the value of the RM parameter according to the equation: RM = log [(1/RF) − 1]. By extrapolating RM values to zero acetone concentration, a relative RM0 lipophilicity parameter was obtained, according to the equation: RM = RM0 + bC, where b is slope and C is concentration of acetone in mobile phase. Based on RM0 and the calibration curve, the values of logPTLC for compounds 6a–l were determined. The calibration curve was calculated using the relationship between RM0 of the standard molecules (acetanilide, p-kresol, p-bromoacetophenone, benzophenone, anthracene) and the corresponding logP parameters specified by the extraction method, respectively. RM0 parameters of the standard molecules and quinobenzothiazine derivatives 6a–l were determined in the same empirical conditions.

| MIC [1] | MIC [2] | MIC [6] | MIC [7] | MIC [8] | MIC [9] | MIC [10] | MIC [11] | MIC (M. smegmatis ATCC 700084) | MIC [12] | chromatographic logP (Lipophilicity by RP-TLC) | Compound | MBC [3] | MBC [4] | MBC [13] | MBC [14] | MBC [15] | MBC [16] | MBC [17] | MBC [18] | IC50 [19] | further results |
| --- | --- | --- | --- | --- | --- | --- | --- | --- | --- | --- | --- | --- | --- | --- | --- | --- | --- | --- | --- | --- | --- |
| 5.72 µM (≈ 2 µg/mL) | 2.81 µM (≈ 0.982 µg/mL) |  |  |  |  |  |  |  |  |  | CC1(C)S[C@@H]2[C@H](NC(=O)[C@H](N)c3ccccc3)C(=O)N2[C@H]1C(=O)O [AMP, ampicillin, reference compound] | 5.72 µM (≈ 2 µg/mL) | 2.81 µM (≈ 0.982 µg/mL) |  |  |  |  |  |  |  | Conc.: corresponding multiple of MBC with at least 70% inhibition of respiratory activity [5]: 16× MIC (>16× MBC); Conc.: lowest multiple of MIC with at least 70% inhibition of respiratory activity [5]: 16× MIC (>16× MBC) |
|  |  |  |  |  |  |  |  |  |  |  | O=C(O)c1cn(C2CC2)c2cc(N3CCNCC3)c(F)cc2c1=O [CPX, ciprofloxacin, reference compound] |  |  |  |  |  |  |  |  |  | Conc.: corresponding multiple of MBC with at least 70% inhibition of respiratory activity [5]: 32× MIC (32× MBC); Conc.: lowest multiple of MIC with at least 70% inhibition of respiratory activity [5]: 32× MIC (32× MBC); S. aureus Respiration Inhibition ([5]; at the concentration given): 96.1% |
| 22.3 µM | 89.1 µM | 44.6 µM | 44.6 µM | 22.3 µM | 178 µM | 178 µM | 89.1 µM | 22.3 µM | 22.3 µM | 1.99 | CCCOc1ccc2c(c1)Nc1c(c[n+](C)c3ccccc13)S2 [Compound 6b, 10-propoxy-5-methyl-12H-quino[3,4-b][1,4]benzothiazinium chloride] | 44.6 µM | 89.1 µM | 44.6 µM | 44.6 µM | 22.3 µM | 178 µM | 178 µM | 89.1 µM | 65.5 µM |  |
| 178 µM | 178 µM | 178 µM | 178 µM | 178 µM | 178 µM | 178 µM | 89.1 µM | 44.6 µM | 44.6 µM | 1.18 | CCCOc1cccc2c1Nc1c(c[n+](C)c3ccccc13)S2 [Compound 6c, 11-propoxy-5-methyl-12H-quino[3,4-b][1,4]benzothiazinium chloride] | 178 µM | 178 µM | 178 µM | 178 µM | 178 µM | 178 µM | 178 µM | 178 µM | > 100 µM |  |
| 44.8 µM | 44.8 µM | 44.8 µM | 89.6 µM | 44.8 µM | 44.8 µM | 44.8 µM | 22.4 µM | 22.4 µM | 11.2 µM | 2.98 | C=CCOc1ccc2c(c1)Sc1c[n+](C)c3ccccc3c1N2 [Compound 6d, 9-allyloxy-5-methyl-12H-quino[3,4-b][1,4]benzothiazinium chloride] | 44.8 µM | 44.8 µM | 44.8 µM | 89.6 µM | 44.8 µM | 44.8 µM | 44.8 µM | 44.8 µM | > 100 µM |  |
| 359 µM | 179 µM | 359 µM | 359 µM | 179 µM | 359 µM | 359 µM | 179 µM | 89.6 µM | 44.8 µM | 2.29 | C=CCOc1cccc2c1Nc1c(c[n+](C)c3ccccc13)S2 [Compound 6f, 11-allyloxy-5-methyl-12H-quino[3,4-b][1,4]benzothiazinium chloride] | 359 µM | 359 µM | 359 µM | 359 µM | 359 µM | 359 µM | 359 µM | 179 µM | > 100 µM |  |
| 45.1 µM | 45.1 µM | 90.1 µM | 90.1 µM | 45.1 µM | 45.1 µM | 45.1 µM | 22.5 µM | 22.5 µM | 22.5 µM | 1.74 | C#CCOc1ccc2c(c1)Nc1c(c[n+](C)c3ccccc13)S2 [Compound 6h, 10-propargyloxy-5-methyl-12H-quino[3,4-b][1,4]benzothiazinium chloride] | 45.1 µM | 45.1 µM | 90.1 µM | 90.1 µM | 45.1 µM | 45.1 µM | 45.1 µM | 22.5 µM | > 100 µM |  |
|  |  |  |  |  |  |  |  | 117 µM (≈ 16 µg/mL) | 467 µM (≈ 64 µg/mL) |  | NNC(=O)c1ccncc1 [INH, isoniazid, reference compound] |  |  |  |  |  |  |  |  |  |  |
|  |  |  |  |  |  |  |  | 19.4 µM (≈ 16 µg/mL) | 2.43 µM (≈ 2 µg/mL) |  | CO[C@H]1/C=C/O[C@@]2(C)Oc3c(C)c(O)c4c(O)c(c(/C=N/N5CCN(C)CC5)c(O)c4c3C2=O)NC(=O)/C(C)=C\C=C\[C@H](C)[C@H](O)[C@@H](C)[C@@H](O)[C@@H](C)[C@H](OC(C)=O)[C@@H]1C [RIF, rifampicin, reference compound] |  |  |  |  |  |  |  |  |  |  |
|  |  |  |  |  |  |  |  |  |  |  | COc1cccc2c1C(=O)c1c(O)c3c(c(O)c1C2=O)C[C@@](O)(C(=O)CO)C[C@@H]3O[C@H]1C[C@H](N)[C@H](O)[C@H](C)O1 [doxorubicin, reference compound] |  |  |  |  |  |  |  |  | 5.5 µM |  |

| Compound | MIC [1] | MIC [2] | MIC [6] | MIC [7] | MIC [8] | MIC [9] | MIC [10] | MIC [11] | MIC (M. smegmatis ATCC 700084) | MIC [12] | chromatographic logP (Lipophilicity by RP-TLC) | MBC [3] | MBC [4] | MBC [13] | MBC [14] | MBC [15] | MBC [16] | MBC [17] | MBC [18] | IC50 [19] | further results |
| --- | --- | --- | --- | --- | --- | --- | --- | --- | --- | --- | --- | --- | --- | --- | --- | --- | --- | --- | --- | --- | --- |
| Cc1onc(-c2ccccc2)c1C(=O)N[C@@H]1C(=O)N2[C@@H]1SC(C)(C)[C@@H]2C(=O)O [OXA, oxacillin, reference compound] | 1.25 µM (≈ 0.502 µg/mL) |  | 79.8 µM (≈ 32 µg/mL) | 29.7 µM (≈ 11.9 µg/mL) | 9.9 µM (≈ 3.97 µg/mL) |  |  |  |  |  |  | 1.25 µM (≈ 0.502 µg/mL) |  | 79.8 µM (≈ 32 µg/mL) | 29.7 µM (≈ 11.9 µg/mL) | 9.9 µM (≈ 3.97 µg/mL) |  |  |  |  |  |
| CN(C)[C@@H]1C(O)=C(C(N)=O)C(=O)[C@@]2(O)C(O)=C3C(=O)c4c(O)cccc4[C@@](C)(O)[C@H]3C[C@@H]12 [TTC, tetracycline, reference compound] | 4.52 µM (≈ 2.01 µg/mL) |  | 36.1 µM (≈ 16 µg/mL) | 36.1 µM (≈ 16 µg/mL) | > 72.1 µM |  |  |  |  |  |  |  |  |  |  |  |  |  |  |  |  |
